Patent US20040121994A1, “Novel amides that activate soluble guanylate cyclase” (priority 2002, published 2004)

Tests used:
[1] = target: T1, soluble guanylate cyclase (sGC), α1 and β1 subunits of guanylate cyclase expressed in Sf9 cells (Homo sapiens, UniProt Q02108+Q02153); test: Guanylate cyclase assay (formation of cyclic GMP from GTP); format: biochemical; details: for Mean activation at 100 μM: (activity of compound at 100 μM with 1 μM SNP)−(activity of compound at 100 μM)/(activity of SNP at 1 μM)−(basal activity of sGC); for Mean efficacy of compound combined with 1 μM of SNP, [%]: compound at 100 μM with 1 μM sodium nitro prusside (SNP); for Emax at 100 µM: read-out: Mean basal efficacy of compound alone at 100 μM, [%]
T1 construct: made in house; host or cells: Sf9 insect cells (baculovirus co-infection)
T1 sequence (Q02108 1-690): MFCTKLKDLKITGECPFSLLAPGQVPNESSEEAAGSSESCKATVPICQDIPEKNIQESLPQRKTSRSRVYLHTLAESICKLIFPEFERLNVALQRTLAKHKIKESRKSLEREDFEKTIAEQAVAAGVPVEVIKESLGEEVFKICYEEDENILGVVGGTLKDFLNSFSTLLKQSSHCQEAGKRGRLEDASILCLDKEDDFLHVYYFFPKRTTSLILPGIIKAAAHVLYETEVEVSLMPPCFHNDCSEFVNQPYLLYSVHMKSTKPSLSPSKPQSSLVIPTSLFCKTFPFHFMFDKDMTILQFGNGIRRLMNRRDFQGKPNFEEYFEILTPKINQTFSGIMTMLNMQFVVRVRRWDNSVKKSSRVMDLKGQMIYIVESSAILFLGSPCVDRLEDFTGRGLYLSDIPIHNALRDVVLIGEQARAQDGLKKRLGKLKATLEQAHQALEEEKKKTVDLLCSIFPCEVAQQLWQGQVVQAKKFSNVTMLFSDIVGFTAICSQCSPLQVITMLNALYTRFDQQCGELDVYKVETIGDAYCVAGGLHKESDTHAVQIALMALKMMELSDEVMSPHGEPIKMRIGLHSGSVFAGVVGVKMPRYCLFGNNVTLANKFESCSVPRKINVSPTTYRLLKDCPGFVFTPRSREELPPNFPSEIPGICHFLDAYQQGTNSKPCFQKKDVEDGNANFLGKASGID
T1 sequence (Q02153 1-619): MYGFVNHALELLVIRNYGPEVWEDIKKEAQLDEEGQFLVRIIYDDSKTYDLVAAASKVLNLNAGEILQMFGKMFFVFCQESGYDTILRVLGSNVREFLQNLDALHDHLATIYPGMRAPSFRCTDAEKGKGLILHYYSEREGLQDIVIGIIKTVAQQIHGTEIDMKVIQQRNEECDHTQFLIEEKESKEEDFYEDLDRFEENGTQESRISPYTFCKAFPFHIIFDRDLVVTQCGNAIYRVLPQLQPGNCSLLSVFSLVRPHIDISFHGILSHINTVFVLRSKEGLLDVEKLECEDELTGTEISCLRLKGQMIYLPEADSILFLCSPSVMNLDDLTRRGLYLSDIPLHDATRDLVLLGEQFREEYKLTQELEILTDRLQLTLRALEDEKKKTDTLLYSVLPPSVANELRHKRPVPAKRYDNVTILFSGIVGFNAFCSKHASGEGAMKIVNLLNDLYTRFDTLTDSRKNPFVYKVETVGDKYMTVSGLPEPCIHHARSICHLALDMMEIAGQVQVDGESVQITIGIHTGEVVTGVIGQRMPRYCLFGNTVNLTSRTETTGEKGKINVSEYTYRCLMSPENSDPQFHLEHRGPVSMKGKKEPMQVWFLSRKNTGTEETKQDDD
How it was run: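 Sf9 high-speed supernatant with human sGC α1/β1 converted 1 mM GTP to cGMP over 15 min at 37 °C (50 mM Tris pH 7.6, 4 mM MgCl2, 0.5 mM IBMX); cGMP by enzyme immunoassay. Compounds at 100 μM, with or without 1 μM SNP; activity expressed relative to 100 μM YC-1 (no SNP) as 100%.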

[2] = normalized with the activity of 100 μM YC-1 (without SNP) as 100%
[3] = compound at 100 μM without SNP, normalized with the activity of 100 μM YC-1 (without SNP) as 100%

Mean activation at 100 μM [1] | Mean efficacy of compound combined with 1 μM of SNP, [%] [1, 2] | Emax at 100 µM [1, 3] | melting point | Mean basal efficacy of compound alone at 100 μM, [%] [1, 3] | SMILES
2.9 | 110% | 69% | 68 to 71 °C |  | O=C(/C=C/c1ccccc1Sc1ccc(Cl)cc1Cl)NCCCCO [Example 29, (2E)-3-{2-[(2,4-dichlorophenyl)thio]phenyl}-N-(4-hydroxybutyl)acrylamide]
3.4 | 289% | 66% | 86 to 88 °C |  | O=C(/C=C/c1ccccc1Sc1ccc(Cl)cc1)NC1CCC(O)CC1 (stereo not drawn) [Example 30, (2E)-3-{2-[(4-chlorophenyl)thio]phenyl}-N-(4-hydroxycyclohexyl)acrylamide]
9.5 | 160% | 54% | 134 to 136 °C |  | COc1ccc(Sc2ccccc2/C=C/C(=O)NCCCCO)cc1 [Example 43, (2E)-N-(4-hydroxybutyl)-3-{2-[(4-methoxyphenyl)thio]phenyl}acrylamide]
2.7 | 224% |  |  | 100% | OCc1ccc(-c2nn(Cc3ccccc3)c3ccccc23)o1 [YC-1, 1-Benzyl-3-hydroxymethyl-2-furylindazole, reference compound]
